Entries after “also recorded” stand apart in the source; their conditions may differ.
Columns and labels:
[1] = Cone-and-plate rheology of elastic modulus (G′) in thiolated hydrogel substrate; conditions: for concentration needed to cause a 40% decrease in the G′ of the hydrogel (ΔG′=−40%): 30 min incubation, dose response 0.5-10 mM
Method: 2.2. Preparation of thiolated hyaluronic acid hydrogel as a model substrate: Thiolated hyaluronic acid hydrogel (Glycosil®, ESI-BIO) was solubilized in 10% DMSO/75 mM NaCl/sodium phosphate pH 7.4 buffer, prepared using degassed water. Aliquots of 250 microliter of gel solution were distributed to 1.5 ml centrifuge tubes, sealed, and incubated overnight (˜18 hours) at room temperature to allow for slow oxidation and cross-linking of the hydrogel. Gels formed by this protocol typically yielded elastic moduli of 20-30 Pa, measured by cone-and-plate rheology.
2.3. Rheological measurements: A rheometer was employed to determine the effect of the compounds disclosed herein on the elastic modulus (G′) of ex vivo human sputum or model hydrogel substrate. The terms “elastic modulus”, G′, and the like refer to the elastic modulus as known in the art. Rheological measurements were made with AR2000 or DHR cone-and-plate rheometer (TA instruments), as known in the art. For sputum samples, ˜0.8 mL was used per assay, with 40 mm 2° geometry. For thiolated hydrogel samples, 0.25 mL was used per assay, with 40 mm ½° geometry. For timesweep recordings, a solvent trap with water as solvent was employed to minimize drying. Test compounds were dissolved in water and added at 10% v/v, to result in the final concentration of interest in the sample. The effect of test compound was measured by taking measurements every 2 min, for a period of 30 min. Normalized ratio % G′ was calculated by dividing the post treatment measurement of G′ at particular timepoint by pretreatment measurement of G′. Percent change in elastic modulus (% ΔG′) was calculated by comparing the measurement at 30 min to the initial pretreatment baseline.
Rheological measurements with Compound 1, Compound 5, Compound 9 and N-acetylcysteine at concentrations between 0.5-10 mM were conducted in order to understand the dose dependence of mucolytic efficacy on concentration of the dithiol test agents (FIG. 3). Effective concentration that causes 40% change in G′ for each test agent was determined. All dithiols tested cause 40% change in G′ at concentrations <1 mM, while NAC requires ˜8-10× higher dose to achieve the same mucolytic effect.
Mucolytic efficacy data was collected in cross-linked thiolated hydrogel model system for multiple enabled dithiolsaccharide compounds and N-acetylcysteine at 5 mM.

[2] = system: primary human airway epithelial cells (AECs); assay: G6PD release cytotoxicity assay in airway epithelial cells at air-liquid interface; type: cell-based; conditions: Compound 1 disodium salt, apical exposure 1 hr at 37° C. at 5, 25 and 50 mM, 6 hr recovery; compared with PBS control
Method: Briefly, primary tracheobronchial epithelial cells from ten donors were expanded in culture and differentiated at air-liquid interface for 21 days. Detailed cell culture protocols for airway epithelial cells can be found in Lachowicz-Scroggins et al, Cell Discov, 4, Article 7, 2018 and Widdicombe et al, Biotechniques, 39, 249-255, 2005. Compound 1 (disodium salt) was dissolved in PBS, added to apical surface of the cells at 5, 25 and 50 mM and left for 1 hr at 37° C. PBS was negative control. The apical and basolateral surfaces were washed with PBS, fresh media was added to basolateral side for 6 hr recovery period and collected for G6PD measurements. One control filter was harvested for full lysis with NP-40 lysis buffer to measure total G6PD content in cell lysates.
G6PD (glucose 6-phosphase dehydrogenase) release is a common method of assessing the extent of cellular damage or death. G6PD was measured using Vybrant® Cytotoxicity Assay Kit (ThermoFisher Scientific) and expressed as percent released relative to the total G6PD content.

[3] = system: C57BL/6 mice; assay: In vivo safety assessment, mouse intranasal (pulmonary) delivery model
Method: Body weights were recorded on days 1, 8 and 15. On day 15, BAL was performed and used for total and differential cell counts. Mice were euthanized on day 15, and whole lung was fixed in 10% formalin, embedded in paraffin, sectioned and H&E stained for subsequent injury scoring by board-certified lung pathologist (Table 1B provides scoring criteria). Scoring was done blindly. Sera were obtained from blood collected by cardiac puncture and tested for renal and metabolic function outcomes.
Table 1. […] Safety outcomes in mouse pulmonary delivery model (A). […] Outcome measures of safety included body weight, renal function tests, measures of lung injury in bronchoalveolar lavage (BAL), and histologic appearance of tissue sections from formalin-fixed and paraffin-embedded lungs.

[4] = mean ± SEM, BAL on day 15, intranasal 30 μL, 25 mM, 10 doses
[5] = mean ± SEM, serum, intranasal 30 μL, 25 mM, 10 doses

OC1C(O)[C@H](S)OC(CS)[C@@H]1O (stereo partly drawn) [Compound 1, 1,6-dithio-6-deoxy-β-D-galactopyranose]
concentration needed to cause a 40% decrease in the G′ of the hydrogel (ΔG′=−40%) [1]: 0.7 mM
% release of G6PD (cell toxicity) [2]: minimal and similar to that of the Phosphate Buffered Saline (PBS) control; also recorded: low and similar to the PBS control
systemic or lung toxicity compared to control saline ([3]; intranasal 30 μL of 25 mM daily, 10 doses over 2 weeks, N=10 mice): did not cause any discernible systemic or lung toxicity
BAL Eosinophil % [3, 4]: 0 ± 0%
BAL Lymphocyte % [3, 4]: 0 ± 0.1%
BAL Macrophage % [3, 4]: 100 ± 0.1%
BAL Neutrophil % [3, 4]: 0 ± 0%
BAL total cell count [3, 4]: (37.3 ± 7) × 10^4
Lung Injury Score ([3]; mean ± SEM, blinded histology score 0-4 per Table 1B, day 15, intranasal 30 μL, 25 mM, 10 doses): 0.4 ± 0.16
Body weight ([3]; mean ± SEM, intranasal 30 μL, 25 mM, 10 doses over 2 weeks): 18.6 ± 0.32 g
Blood urea nitrogen (renal function test) [3, 5]: 25 ± 1.3 mg/dL
Creatinine (renal function test) [3, 5]: 0.15 ± 0.01 mg/dL

OC1C(O)[C@H](O)C(CS)O[C@@H]1O[C@H]1OC(CS)[C@@H](O)C(O)C1O (stereo partly drawn) [Compound 5, 6,6′-dithio-6,6′-dideoxy-α,α-trehalose]
concentration needed to cause a 40% decrease in the G′ of the hydrogel (ΔG′=−40%) [1]: 1.0 mM

CO[C@]1(CS)O[C@H](CS)C(O)C1O (stereo partly drawn) [Compound 9, Methyl-1,6-dithio-1,6-dideoxy-β-D-fructofuranoside]
concentration needed to cause a 40% decrease in the G′ of the hydrogel (ΔG′=−40%) [1]: 0.7 mM

CC(=O)N[C@@H](CS)C(=O)O [NAC, N-acetylcysteine, reference compound]
concentration needed to cause a 40% decrease in the G′ of the hydrogel (ΔG′=−40%) [1]: 8 mM
dose of NAC relative to dithiols needed to achieve the same mucolytic effect (40% change in G′) ([1]; fold higher dose than dithiols): 8-10 ×

Reference: US12187762B2, “Dithiolsaccharide mucolytic agents and uses thereof” (The Regents of the University of California, priority 2018, dated 2025)
